{"source": "patent US11993576B2", "about": "“N-benzyl-N-arylsulfonamide derivative and preparation and use thereof” (Hangzhou Yirui Pharmaceutical Technology Co., Ltd, priority 2019, dated 2024)", "origin": "cited, not measured here", "key": {"[1]": {"tested_on": "Th2 TEM cells with highly expressed Kv1.3", "conditions": "ovalbumin-induced asthma, rat; cited from earlier work"}, "EAE": {"tested_on": "EAE", "conditions": "in vivo; cited from earlier work"}, "[2]": {"tested_on": "rat model of autoimmune glomerular basal membrane nephritis", "conditions": "intraperitoneal injection; cited from earlier work"}, "[3]": {"tested_on": "SCID mouse psoriasis xenograft model", "conditions": "injection or topical skin application; cited from earlier work"}, "[4]": {"tested_on": "allergic contact dermatitis", "conditions": "applied topically, rat; cited from earlier work"}}, "data": [{"compound": "SHK-186", "values": [{"measurement": "proliferation of Th2 TEM cells and production of cytokines", "setting": "[1]", "value": "can effectively inhibit proliferation of Th2 TEM cells with highly expressed Kv1.3 and production of cytokines"}, {"measurement": "inductive occurrence of EAE", "setting": "EAE", "value": "can resist inductive occurrence of EAE"}, {"measurement": "production of IFN-γ and IL-17", "setting": "EAE", "value": "inhibit production of IFN-γ and IL-17"}]}, {"compound": "O=c1ccc2c(OCCCCc3ccccc3)c3ccoc3cc2o1", "note": "[Psora-4]", "values": [{"measurement": "proteinuria and crescentic glomeruli", "setting": "[2]", "value": "can significantly decrease proteinuria and crescentic glomeruli"}]}, {"compound": "O=c1ccc2c(OCCCCOc3ccccc3)c3ccoc3cc2o1", "note": "[PAP-1]", "values": [{"measurement": "reduction of infiltrated CD3+ lymphocytes", "setting": "[3]", "value": 85, "unit": "%"}, {"measurement": "reduction of thickness of pathological epidermal hyperplasia", "setting": "[3]", "value": "approximately 50%"}, {"measurement": "allergic contact dermatitis", "setting": "[4]", "value": "can effectively inhibit allergic contact dermatitis"}]}]}
